# Reference: publication PMC3775972 (Wound repair and regeneration : official publication of the …, 2013)
# How the values were obtained:
# hybridoma mouse cells = details: nM concentrations; cited from earlier work
# [1] = test system: T-lymphoblastic leukaemia CEM cells; details: read-out: IC50, cytotoxicity; cited from earlier work
# TNF-α mRNA = assay: Real time PCR of wound tissue, TNF-α; type: in vivo; details: d 10 post-wounding, 10 μg/mouse topical daily
# ICAM-1 mRNA = assay: Real time PCR of wound tissue, ICAM-1; type: in vivo; details: d 10 post-wounding, 10 μg/mouse topical daily
# TGF-β mRNA = assay: Real time PCR of wound tissue, TGF-β; type: in vivo; details: d 10 post-wounding, 10 μg/mouse topical daily
# healthy rats = details: oral administration, associated with activation of Akt; cited from earlier work
# 3T3 mouse fibroblasts [2] = assay: Scratch wound closure; type: cell-based; details: for Scratch wound closure at 5 μM, %: 12 h incubation, mean ± SEM; for Fibroblast migration / scratch wound closure activity (in words): dose dependence at 0.1–10 μM, 12 h
# [3] = Body weight and food intake after wounding; type: in vivo; details: 10 μg/mouse topically daily, d 2 post-wounding
# 3T3 mouse fibroblasts [4] = assay: Fibroblast viability / cytotoxicity assay; type: cell-based; details: for IC50: read-out: Cell cytotoxicity, IC, MTT, 0.3–30 μM for 4 h
# RPMI 8226 cancer cells = details: read-out: IC50, cytotoxicity; RPMI 8226 cells; cited from earlier work
# [5] = test system: primary mouse keratinocytes; assay: Primary keratinocyte proliferation assay; type: cell-based; details: for Proliferation of primary keratinocytes: versus vehicle (ethanol); for Proliferation of primary keratinocytes, dose dependence: respective doses, Alamar Blue
# 3T3 mouse fibroblasts [6] = assay: Fibroblast proliferation assay; type: cell-based; details: 24 h, BrdU, mean ± SEM
# phospho-Akt1(Ser473) = assay: Western blot of edge-of-the-wound tissue, Akt phosphorylation; type: in vivo; details: 10 μg/mouse topical daily
# HeLa cancer cell line = details: cited from earlier work
# K562 cancer cell line = details: cited from earlier work
# HOS cancer cell line = details: cited from earlier work
# A549 cancer cell line = details: cited from earlier work
# [7] = test system: full thickness dermal wound in C57BL/6J mice; assay: Mouse model of cutaneous wound healing; type: in vivo
# macrophage cell culture = assay: LPS-stimulated inflammation in macrophage cell culture; type: cell-based; details: preliminary data, not shown
# [8] = Fibroblast viability / cytotoxicity assay; type: cell-based, mouse; details: mouse, NIH 3T3 fibroblasts (ATCC CCL-92)
# human cancer cell lines = details: below 50 μM; cited from earlier work
# 3T3 mouse fibroblasts [9] = details: PDGF 2 nM, reference treatment; cited from earlier work
compound,measurement,setting,value
CC(C)[C@@H](C)[C@@H](O)[C@H](O)[C@@H](C)[C@H]1CC[C@H]2[C@@H]3COC(=O)[C@H]4C[C@H](O)[C@H](O)C[C@]4(C)[C@H]3CC[C@]12C [24-epibrassinolide],Proportions of viable hybridoma mouse cells,hybridoma mouse cells,increased
"CC[C@@H](C(C)C)[C@@H](O)[C@H](O)[C@@H](C)[C@H]1CC[C@H]2[C@@H]3CC(=O)[C@H]4C[C@H](O)[C@H](O)C[C@]4(C)[C@H]3CC[C@]12C [(22R, 23R)-homocastasterone, reference compound]",IC50,[1],13 µM
"CCNC(=O)[C@H]1O[C@@H](n2cnc3c(N)nc(NCCc4ccc(CCC(=O)O)cc4)nc32)[C@H](O)[C@@H]1O [CGS-21680, reference compound]",TNF-α mRNA level in wound tissue,TNF-α mRNA,remarkable suppression
same,ICAM-1 mRNA level in wound tissue,ICAM-1 mRNA,no effect
same,TGF-β mRNA level in wound tissue,TGF-β mRNA,no effect
"CC[C@@H](C(C)C)[C@H](O)[C@@H](O)[C@@H](C)[C@H]1CC[C@H]2[C@@H]3COC(=O)[C@H]4C[C@H](O)[C@H](O)C[C@]4(C)[C@H]3CC[C@]12C [Compound 1, (22S, 23S, 24S)-2α, 3 α, 22,23-tetrahydroxy-24 ethyl-^2-homo-7-oxo-5α-cholestane-6-one]",Anabolic response,healthy rats,selective anabolic response
same,"Scratch wound closure at 5 μM, %",3T3 mouse fibroblasts [2],30 ± 4.2 %
same,"Scratch wound closure at 5 μM, %",3T3 mouse fibroblasts [2]; listed as HB,30 ± 4.2%
same,Body weight loss associated with injury,[3],tendency for HB to reduce weight loss
same,Cytotoxicity (in words),"3T3 mouse fibroblasts [4]; at or up to 30 μM, the highest concentration tested",no cytotoxicity
same,IC50,3T3 mouse fibroblasts [4],> 30 µM
same,TNF-α mRNA level in wound tissue,TNF-α mRNA,nearly complete downregulation
same,IC50,RPMI 8226 cancer cells,~30 µM
same,Proliferation of primary keratinocytes,[5]; 3 μM,did not reach significance
same,Proliferation of primary keratinocytes,[5]; doses of 0.3 and 10 μM,significant increase
same,"Cell proliferation at 5 μM, % of control",3T3 mouse fibroblasts [6],37.7 ± 3.4 % of control
same,ICAM-1 mRNA level in wound tissue,ICAM-1 mRNA,significant suppression
same,Akt-1 phosphorylation in edge-of-the-wound tissue,phospho-Akt1(Ser473),upregulation
same,Cytotoxicity (in words),HeLa cancer cell line,no cytotoxicity
same,IC50,[1],~30 µM
same,Cytotoxicity (in words),K562 cancer cell line,no cytotoxicity
same,Cytotoxicity (in words),HOS cancer cell line,no cytotoxicity
same,Cytotoxicity (in words),A549 cancer cell line,no cytotoxicity
same,Cutaneous wound healing,"[7]; 10 μg topical per mouse per day for 10 d, versus vehicle",significantly improved
same,Increase in speed of wound closure relative to control mice,"[7]; d 4, percent of original wound size, 10 μg/mouse topical",2 fold
same,Effect on LPS-stimulated inflammation,macrophage cell culture,no pro- or anti-inflammatory effect
same,TGF-β mRNA level in wound tissue,TGF-β mRNA,weak effect
"CC[C@@H](C(C)C)[C@H](O)[C@@H](O)[C@@H](C)[C@H]1CC[C@H]2[C@@H]3CC(=O)[C@H]4C[C@H](O)[C@H](O)C[C@]4(C)[C@H]3CC[C@]12C [Compound 2, (22S, 23S, 24S)-2α, 3α, 22, 23-tetrahydroxy-24-ethyl-5α-cholestan-6-one]","Scratch wound closure at 5 μM, %",3T3 mouse fibroblasts [2],32.9 ± 4.1 %
same,IC50 at 4 h,[8],> 30 µM
same,Cytotoxicity (in words),human cancer cell lines,weak to no cytotoxicity
"CC[C@H](C(C)C)[C@H](O)[C@@H](O)[C@@H](C)[C@H]1CC[C@H]2[C@@H]3COC(=O)[C@H]4C[C@H](F)CC[C@]4(C)[C@H]3CC[C@]12C [Compound 3, (22S,23S,24R)-3α-fluoro-22,23-dihydroxy-24-ethyl-^2-homo-7-oxa-5 α-cholestan-6-one]","Scratch wound closure at 5 μM, %",3T3 mouse fibroblasts [2],15.3 ± 2.6%
same,IC50,3T3 mouse fibroblasts [4],~30 µM
"CC[C@@H](C(C)C)[C@H](O)[C@@H](O)[C@@H](C)[C@H]1CC[C@H]2[C@@H]3CC(=O)[C@H]4C[C@H](F)CC[C@]4(C)[C@H]3CC[C@]12C [Compound 4, (22S,23S,24S)-3α-fluoro-22,23-dihydroxy-24-ethyl-5 α-cholestan-6-one]","Scratch wound closure at 5 μM, %",3T3 mouse fibroblasts [2],27.7 ± 4.0 %
same,Fibroblast migration / scratch wound closure activity (in words),3T3 mouse fibroblasts [2],high activity similar to HB
same,IC50 at 4 h,[8],~30 µM
same,"Proliferation of primary keratinocytes, dose dependence",[5],dose-dependently decreased
"CC[C@@H](C(C)C)[C@H](O)[C@@H](O)[C@@H](C)[C@H]1CC[C@H]2[C@@H]3CNC(=O)[C@H]4C[C@H](O)[C@H](O)C[C@]4(C)[C@H]3CC[C@]12C [Compound 5, (22S,23S,24S)-2α,3α,22,23-tetrahydroxy-24-ethyl-^2-homo-7-aza-5α-cholestan-6-one]","Scratch wound closure at 5 μM, %",3T3 mouse fibroblasts [2],13.0 ± 0.7%
same,Fibroblast migration / scratch wound closure activity (in words),3T3 mouse fibroblasts [2],no effect
same,IC50,3T3 mouse fibroblasts [4],12.5 µM
"CC[C@@H](C(C)C)[C@H](O)[C@@H](O)[C@@H](C)[C@H]1CC[C@H]2[C@@H]3CC(=O)N[C@H]4C[C@H](O)[C@H](O)C[C@]4(C)[C@H]3CC[C@]12C [Compound 6, (22S,23S,24S)-2α,3α,22,23-tetrahydroxy-24-ethyl-^2-homo-6-aza-5α-cholestan-7-one]","Scratch wound closure at 5 μM, %",3T3 mouse fibroblasts [2],30.5 ± 4.2 %
same,Fibroblast migration / scratch wound closure activity (in words),3T3 mouse fibroblasts [2],highest activity at 3 μM
same,IC50,3T3 mouse fibroblasts [4],> 30 µM
same,"Proliferation of primary keratinocytes, dose dependence",[5],dose-dependently decreased
"CC(C)[C@H](C)[C@H](O)[C@@H](O)[C@@H](C)[C@H]1CC[C@H]2[C@@H]3COC(=O)[C@H]4C[C@@H](O)[C@H](O)C[C@]4(C)[C@H]3CC[C@]12C [Compound 8, (22S,23S,24R)-2α,3α,22,23-tetrahydroxy-24-methyl-^2-homo-7-oxa-5α-cholestan-6-one]","Scratch wound closure at 5 μM, %",3T3 mouse fibroblasts [2],13.2 ± 1.5%
same,IC50,3T3 mouse fibroblasts [4],> 30 µM
same,"Cell proliferation at 5 μM, % of control",3T3 mouse fibroblasts [6],31.9 ± 5.3 % of control
"CC(C)[C@@H](C)[C@@H](O)[C@H](O)[C@@H](C)[C@H]1CC[C@H]2[C@@H]3COC(=O)[C@H]4C[C@H](O)[C@H](O)C[C@]4(C)[C@H]3CC[C@]12C [Compound 9, (22R,23R,24R)-2α,3α,22,23-tetrahydroxy-24-methyl-^2-homo-7-oxa-5α-cholestan-6-one]","Scratch wound closure at 5 μM, %",3T3 mouse fibroblasts [2],8.1 ± 1.6%
same,IC50,3T3 mouse fibroblasts [4],> 30 µM
same,"Cell proliferation at 5 μM, % of control",3T3 mouse fibroblasts [6],31.0 ± 2.6 % of control
PDGF,"Scratch wound closure, %",3T3 mouse fibroblasts [9],64.8 ± 1.7 %
